# Key:
# [1] = test system: patients with septic shock and elevated adrenomedullin; assay: AdrenOSS-2 phase II clinical trial, 14-day mortality; format: in vivo, human; conditions: vs placebo
# Text: AdrenOSS-2 is a double-blind, placebo-controlled, randomized, multicenter, proof of concept and dose-finding phase II clinical trial to investigate the safety, tolerability and efficacy of the N-terminal ADM antibody named Adrecizumab in patients with septic shock and elevated adrenomedullin (Geven et al. BMJ Open 2019;9:e024475). In total, 301 patients with septic shock and bio-ADM concentration > 70 pg/mL were randomized (2:1:1) to treatment with a single intravenous infusion over approximately 1 hour with either placebo (n=152), adrecizumab 2 ng/kg (n=72) or adrecizumab 4 ng/kg (n=77). All-cause mortality within 28 (90) days after inclusion was 25.8% (34.8%). Mean age was 68.4 years and 61% were male. For the per protocol analysis, n=294 patients remained eligible, and 14-day all-cause mortality rate was 18.5%.
# In patients treated with Adrecizumab (both doses combined, per protocol population), a trend to lower short term mortality (14 days post admission) was observed compared to placebo (Hazard ratio (HR) 0.701 [0.408-1.21], p=0.100) (FIG. 8).
# [2] = phase I study; cited from earlier work
substance,measurement,setting,value
"Adrecizumab: humanized version of an N-terminal anti-ADM antibody; heavy chain SEQ ID NO: 32, light chain SEQ ID NO: 33",HR 14-day mortality,[1]; patients with DPP3 <40,0.385
same,HR 14-day mortality,[1]; patients with DPP3 <50 (ng/mL on admission),0.426
same,HR 14-day mortality,[1]; patients with DPP3 <60,0.449
same,HR 14-day mortality,[1]; patients with DPP3 <70,0.546
same,HR 14-day mortality,[1]; patients with DPP3 >40,1.35
same,HR 14-day mortality,[1]; patients with DPP3 >50 (ng/mL on admission),1.69
same,HR 14-day mortality,[1]; patients with DPP3 >60,1.62
same,HR 14-day mortality,[1]; patients with DPP3 >70,1.24
same,"safety and tolerability, adverse events",[2],no serious adverse events were observed

# Source: patent US20230193348A1, “DPP3 FOR THERAPY GUIDANCE, MONITORING AND STRATIFICATION OF NT-ADM ANTIBODIES IN PATIENTS WITH SHOCK” (4TEEN4 PHARMACEUTICALS GMBH, priority 2020, published 2023)
